Compared with `CC(C)(C)OC(=O)N(Cc1ccc(C2CCCCC2)cc1)c1nc(N2CCOCC2)c2ncn(CC(=O)O)c2n1`, `O=C(O)CCCc1cccc(OCc2cn(-c3ccc(C(F)(F)F)cn3)nc2C2CCCCC2)c1` is lower in melting point: 166 to 167 °C for the first, 128 to 129 °C for the second.

Going from `CCOC(=O)c1ccc(OCCCCCCc2cc(C)no2)cc1` to `CCCCOc1ccc(-c2nc(CCOS(=O)(=O)c3ccc(C)cc3)c(C)o2)cc1`, the melting point rises from 51 °C to 84.9 °C.

First: COc1cc(C(C)=O)ccc1OC1CCCC1
Second: COc1cccc2c1C(=O)OC2(C)O (stereo not given)
The melting point of the first is lower: 55 to 56 °C for the first, 156 to 158 °C for the second.

First: COc1cccc(N(C)c2nc(NC(=O)C(C)(C)C)nc3[nH]c4ccccc4c23)c1
Second: CN(C)CCCOc1cccc(N(C(=O)c2ccccc2)c2ccccc2)c1
The melting point of the first is higher: 248 to 249 °C for the first, 77 to 81 °C for the second.

`CCCCN(CCCC)c1cc(OC)c(C=Cc2ccc(C=O)s2)c(OC)c1` and `CCCCCS(=O)(=O)NC(=O)/C(=C/c1ccc(OCCOC)cc1Oc1ncc(C(F)(F)F)cc1Cl)CC` cannot be ordered by melting point: 105 to 106 °C for the first, 104 to 106 °C for the second.

First: Fc1ccc(-c2cc(C(F)(F)F)n3ncc(-c4ccccn4)c3n2)cc1Cl
Second: O=C(Cn1c(-c2ccc(Cl)cc2)nc2cccnc21)N1CCCC1
The melting point of the first is lower: 197 °C for the first, 224 to 225 °C for the second.

First: CCN(CC)C(=O)c1cn(-c2cccc(Cl)c2)cn1
Second: COC(=O)c1ncn2c3cccc(Cl)c3c(=O)n(C)c12
The melting point of the first is lower: 105 °C for the first, 210 to 220 °C for the second.

First: CN(C)C=Cc1ncc([N+](=O)[O-])n1CCO
Second: Cn1cc(C=CC(=O)NCN2CCCC2)c([N+](=O)[O-])n1
The melting point of the first is lower: 155 to 157 °C for the first, 180 to 183 °C for the second.

First: CCOC(=O)C1(C(=O)OCC)CCc2cc3c(cc2C1c1cc(OC)c(O)c(OC)c1)OCO3 (stereo not given)
Second: CCOC(=O)C1=C(CF)NC(CF)=C(C(=O)OCC)C1c1cccc([N+](=O)[O-])c1
The melting point of the first is higher: 147 to 148 °C for the first, 113 to 114 °C for the second.

First: O=S(=O)(C(/C=C/c1ccc(Br)cc1)c1c(F)c(F)c(F)c(F)c1F)C(/C=C/c1ccc(Br)cc1)c1c(F)c(F)c(F)c(F)c1F (stereo not given)
Second: Cc1csc2ccc3[nH]c4c(c3c12)CN(CCCC(c1ccc(F)cc1)c1ccc(F)cc1)CC4
The melting point of the first is higher: 176 to 177 °C for the first, 158 °C for the second.

Compared with `CN1CC[C@@H](c2c(O)cc(O)c3c(=O)cc(-c4cccc(F)c4Cl)oc23)[C@@H]1CO`, `CC(=O)NC[C@H]1CN(c2ccc(N3CCN(C(=O)CCC(=O)c4ccc(Cl)cc4)CC3)c(F)c2)C(=O)O1` is lower in melting point: 221 to 223 °C for the first, 208 to 209 °C for the second.

Compared with `O=C1C(c2ccccc2)=C(c2ccccc2)C(=O)N1CCc1ccc(F)cc1`, `Cc1ccc(S(=O)(=O)n2c(C3(O)C=CC(=O)c4ccccc43)cc3ccccc32)cc1` (stereo not given) is lower in melting point: 153 to 154 °C for the first, 110 to 112 °C for the second.

First: CCCCOc1cccc(Cn2[nH]c(N)cc2=O)c1
Second: NS(=O)(=O)OCCCCOc1ccccc1
The melting point of the first is higher: 110 °C for the first, 76 to 77 °C for the second.

First: COc1ccc(C(=O)c2c(C)oc3ccc([N+](=O)[O-])cc23)cc1
Second: CC(C)Oc1ccccc1C1(CC(=O)O)C(=O)Nc2ccc(Cl)cc21 (stereo not given)
The melting point of the first is higher: 167 °C for the first, 146 to 148 °C for the second.

First: Oc1c(C2(c3ccc4ccccc4c3O)c3ccccc3-c3ccccc32)ccc2ccccc12
Second: Nc1ccc(CC(NC(=O)CCCCCCCCCCNC(=O)C(c2ccccc2)c2ccccc2)c2ccccc2)cc1 (stereo not given)
The melting point of the first is higher: 268 to 290 °C for the first, 96 to 102 °C for the second.

Compared with `CCCCCNc1cccc(C(=O)O)c1C(=O)O`, `O=C(O)c1cc(S(=O)Cc2ccccc2)c(Cl)cc1Cl` (stereo not given) is lower in melting point: 236 to 238 °C for the first, 192 °C for the second.

First: CC(CO)C1CCC2C3C=CC4=CC(=O)C5OC5C4(C)C3CCC12C (stereo not given)
Second: CCCC1CCCN(C(=O)C2Cc3ccccc3N2c2ccc(=O)n(C)n2)C1 (stereo not given)
The melting point of the first is higher: 158 to 161 °C for the first, 106 to 110 °C for the second.

Compared with `Cc1cc(N2CCN(CC(=O)c3ccccc3)C2=O)sc1C(=O)NCc1cccnc1`, `O=C(COCCc1coc2c(O)cccc12)c1ccccc1` is lower in melting point: 174 to 176 °C for the first, 114 to 115 °C for the second.

First: CSC(=NC(C)=O)N(C)N=Cc1ccccc1
Second: CCOC(=O)CNC(=S)NC(=Nc1ccccc1)c1ccccc1
The melting point of the first is lower: 102 to 104 °C for the first, 151 to 152 °C for the second.

First: COc1cc(O)c2c(c1)OC(C(C)(C)C=O)CC2=O (stereo not given)
Second: CCC1COc2ccccc2C(=O)C1=O (stereo not given)
The melting point of the first is higher: 93 to 94 °C for the first, 63 to 66 °C for the second.

First: COc1cccc(-c2c(Cl)c(CN3CCOCC3)nc3sc4c(c23)CCN(Cc2ccccc2)C4)c1OC
Second: C1=C(c2c[nH]c3ccccc23)CCN(CC2COc3ccc4c(c3O2)CCO4)C1 (stereo not given)
The melting point of the first is lower: 176 to 177 °C for the first, 207 to 209 °C for the second.

Compared with `Cc1ccc(NC(=O)NCCN2CCN=C2c2ccccc2Cl)cc1`, `Cc1ccc(-n2nc3c(cc2=O)CCc2cnccc2-3)cc1` is higher in melting point: 108 to 111 °C for the first, 188 to 189 °C for the second.

First: COc1cc(C)c(C=CC(C)=CC=CC(C)=CC(=O)OC2C(OC)OC(CO)C(O)C2O)c(C)c1C (stereo not given)
Second: COC(=O)N=C(NC(=O)OC)Nc1ccc(SCC(C)C)cc1NC(=O)CSC
The melting point of the first is higher: 197 °C for the first, 138 to 140 °C for the second.

Compared with `CCCOc1ccccc1-c1nc2c(CCC)nn(C)c2c(=S)[nH]1`, `CCOC(=O)c1cc(-c2ncc(Cl)cc2F)nn1C` is higher in melting point: 111 to 112 °C for the first, 117 to 118 °C for the second.

First: Clc1ncc(OC[C@@H]2CCCN2)cc1-c1ccccc1
Second: O[C@H]1C[C@@H](c2ccccc2)c2ccc(Cl)cc21
The melting point of the first is lower: 75 to 80 °C for the first, 109 °C for the second.

First: CCCNC(=S)NS(=O)(=O)N1CCC(CCNC(=O)c2cc(Cl)ccc2OC)CC1
Second: CS(=O)(=O)N1CCC(C(=O)N(CCCN2CCC(Cc3ccc(F)cc3)CC2)c2ccc(Cl)c(Cl)c2)CC1
The melting point of the first is lower: 119 to 121 °C for the first, 148 to 150 °C for the second.

First: CCn1c(Nc2ccc(C(F)(F)F)cc2C(F)(F)F)nc(C(F)(F)F)c(Cl)c1=O
Second: O=C(O)CCc1cc(OCC2CC2)nn1Cc1ccc(C(F)(F)F)cc1Cl
The melting point of the first is higher: 124 °C for the first, 115 to 116 °C for the second.

First: CC(c1ccncc1)C(O)(Cn1cncn1)c1ccc(F)cc1F (stereo not given)
Second: CCS(=O)(=O)C(F)(F)C(O)(Cn1cncn1)c1ccc(F)cc1F (stereo not given)
The melting point of the first is higher: 161 to 163 °C for the first, 117 to 118 °C for the second.

Compared with `Clc1ccc(CSC(CCc2ccccc2)Cn2ccnc2)cc1Cl` (stereo not given), `O=C1Nc2ccccc2N2CCN(CCc3ccncc3)CC12` (stereo not given) is higher in melting point: 144 to 146 °C for the first, 184 to 186 °C for the second.

First: CC1(C)C(=O)Oc2ccc3cc(C(=O)NCC(F)(F)F)c(Cn4cncn4)cc3c21
Second: CC1(C)CC(=O)C2=C(C1)NC1=C(C(=O)CC(C)(C)C1)C2c1cccc(Oc2ncccn2)c1
The melting point of the first is lower: 200 to 201 °C for the first, 220 to 221 °C for the second.

First: CC(C)S(=O)(=O)C(C#N)=C(Nc1cc(C(F)(F)F)cc(C(F)(F)F)c1)NC1CCC1
Second: Cc1cccc(C2(CC(=O)O)CNC(=O)C2)c1 (stereo not given)
The melting point of the first is lower: 148 to 150 °C for the first, 152 to 154 °C for the second.

First: CCOC(=O)c1cc(Cl)n2ncnc2n1
Second: Oc1nc(-c2ccc(Cl)cc2)nc2c1CCC2
The melting point of the first is lower: 92.5 to 94 °C for the first, 282 °C for the second.

First: N#Cc1ccc(NC(=N)Nc2ccc(C#N)cc2)cc1
Second: COC1c2ccccc2CSc2ccc(C#N)cc21 (stereo not given)
The melting point of the first is higher: 195 to 200 °C for the first, 117 to 118 °C for the second.

Compared with `CCC(=O)Oc1ccc2c(c1)CCC(CN1CCC(O)(c3ccccc3)CC1)C2=O` (stereo not given), `CCN1CCC(c2n[nH]c3cc(F)ccc23)CC1` is higher in melting point: 170 to 172 °C for the first, 175 to 178 °C for the second.

First: Fc1ccc2c(C3CCC4(CC3)OCCO4)c[nH]c2c1
Second: O=C(NCC12CC3CC(CC(C3)C1)C2)c1c(Cl)ccc2nc(N3CCC[C@H](NCCc4nn[nH]n4)C3)ccc12
The melting point of the first is lower: 158 to 159 °C for the first, 168 to 172 °C for the second.

Source: a melting point compilation (Tetko et al.; mined from patent text by program, amines drawn as free bases though some values may be those of a salt)
